Measurements taken from US9302999B2, “Substituted triazoles as herbicides” (E. I. DU PONT DE NEMOURS AND COMPANY, priority 2012, dated 2016).
Read-outs that look alike come from different tables or passages of the source.

How the values were obtained:
Assay type in all cases: in vivo
[1] = system: ducksalad (Heteranthera limosa); experiment: Test C flooded paddy test: ducksalad; details: scale 0 to 100 (0 no effect, 100 complete control); for pest or weed control at 62 g/ha / pest or weed control at 125 g/ha / pest or weed control at 250 g/ha / pest or weed control at 31 g/ha: Heteranthera limosa, read-out: Plant response rating, Ducksalad
Outline: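 Plants at 2-leaf stage in pots flooded 3 cm above soil; compounds applied directly into the paddy water, depth maintained. Visual rating against controls after 13–15 days in greenhouse, scale 0 (no effect) to 100 (complete control).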

[2] = system: bermudagrass (Cynodon dactylon); experiment: Test C pre-/postemergence: bermudagrass
Source text: Seeds of plant species selected from blackgrass (Alopecurus myosuroides), bromegrass, downy (downy bromegrass, Bromus tectorum), foxtail, green (green foxtail, Setaria viridis), ryegrass, Italian (Italian ryegrass, Lolium multiflorum), winter wheat (Triticum aestivum), wild oat (Avena fatua), galium (catchweed bedstraw, Galium aparine), bermudagrass (Cynodon dactylon), surinam grass (Brachiaria decumbens), cocklebur (common cocklebur, Xanthium strumarium), corn (Zea mays), large crabgrass (Digitaria sanguinalis), woolly cupgrass (Eriochloa villosa), foxtail, giant (giant foxtail, Setaria faberii), goosegrass (Eleusine indica), johnsongrass (Sorghum halepense), kochia (Kochia scoparia), lambsquarters (Chenopodium album), morningglory (Ipomoea coccinea), nightshade (eastern black nightshade, Solanum ptycanthum), nutsedge, yellow (yellow nutsedge, Cyperus esculentus), pigweed (Amaranthus retroflexus), ragweed (common ragweed, Ambrosia elation), soybean (Glycine max), common (oilseed) sunflower (Helianthus annuus), Russian thistle (Salsola kali) and velvetleaf (Abutilon theophrasti) were planted into a blend of loam soil and sand and treated preemergence with test chemicals formulated in a non-phytotoxic solvent mixture which included a surfactant.
At the same time, plants selected from these crop and weed species and also barley (winter barley, Hordeum vulgare), canarygrass (Phalaris minor), chickweed (common chickweed, Stellaria media) windgrass (Apera spica-venti) and deadnettle (henbit deadnettle, Lamium amplexicaule) were planted in pots containing Redi-Earth® planting medium (Scotts Company, 14111 Scottslawn Road, Marysville, Ohio 43041) comprising spaghnum peat moss, vermiculite, wetting agent and starter nutrients and treated with postemergence applications of test chemicals formulated in the same manner. Plants ranged in height from 2 to 18 cm (1- to 4-leaf stage) for postemergence treatments.
(§1) Treated plants and controls were maintained in a greenhouse for 13 to 15 days, after which time all species were compared to controls and visually evaluated. Plant response ratings, summarized in Table C, are based on a scale of 0 to 100 where 0 is no effect and 100 is complete control. A dash (-) response means no test result.

[3] = system: foxtail, green (green foxtail, Setaria viridis); experiment: Test D pre-/postemergence: foxtail, green
Source text: (§2) Seeds of plant species selected from bluegrass (annual bluegrass, Poa annua), blackgrass (Alopecurus myosuroides), canarygrass (Phalaris minor), chickweed (common chickweed, Stellaria media), galium (catchweed bedstraw, Galium aparine), bromegrass, downy (downy bromegrass, Bromus tectorum), field poppy (Papaver rhoeas), field violet (Viola arvensis), foxtail, green (green foxtail, Setaria viridis), deadnettle (henbit deadnettle, Lamium amplexicaule), ryegrass, Italian (Italian ryegrass, Lolium multiflorum), kochia (Kochia scoparia), lambsquarters (Chenopodium album), oilseed rape (Brassica napus), pigweed (Amaranthus retroflexus), Russian thistle (Salsola iberica), chamomile (scentless chamomile, Matricaria inodora), speedwell (bird's-eye speedwell, Veronica persica), barley, spring (spring barley, Hordeum vulgare), wheat, spring (spring wheat, Triticum aestivum), buckwheat, wild (wild buckwheat, Polygonum convolvulus), mustard, wild (wild mustard, Sinapis arvensis), oat, wild (wild oat, Avena fatua), radish, wild (wild radish, Raphanus raphanistrum), windgrass (Apera spica-venti), barley, winter (winter barley, Hordeum vulgare), and wheat, winter (winter wheat, Triticum aestivum) were planted into a silt loam soil and treated preemergence with test chemicals formulated in a non-phytotoxic solvent mixture which included a surfactant. At the same time, these same crop and weed species were planted in pots containing the planting medium comprising spaghnum peat moss, vermiculite, wetting agent and starter nutrients and treated with postemergence applications of the test chemicals formulated in the same manner. Plants ranged in height from 2 to 18 cm (1- to 4-leaf stage).
as §1, with “controlled growth environment” for “greenhouse”, “14” for “13”, “21 days” for “15 days,”, “D,” for “C,”

[4] = system: barley, winter (winter barley, Hordeum vulgare); experiment: Test D pre-/postemergence: barley, winter
Source text: as §2
as §1, with “controlled growth environment” for “greenhouse”, “14” for “13”, “21 days” for “15 days,”, “D,” for “C,”

[5] = system: pigweed (Amaranthus retroflexus); experiment: Test D pre-/postemergence: pigweed
Source text: as §2
as §1, with “controlled growth environment” for “greenhouse”, “14” for “13”, “21 days” for “15 days,”, “D,” for “C,”

kochia (Kochia scoparia) = experiment: Test D pre-/postemergence: kochia
Source text: as §2
as §1, with “controlled growth environment” for “greenhouse”, “14” for “13”, “21 days” for “15 days,”, “D,” for “C,”

[6] = system: oilseed rape (Brassica napus); experiment: Test D pre-/postemergence: oilseed rape
Source text: as §2
as §1, with “controlled growth environment” for “greenhouse”, “14” for “13”, “21 days” for “15 days,”, “D,” for “C,”

[7] = Flood (flooded paddy test), 125 g ai/ha, visual rating after 13 to 15 days
[8] = Flood (flooded paddy test), 250 g ai/ha, visual rating after 13 to 15 days
[9] = Postemergence, 31 g ai/ha, scale 0 to 100 (0 no effect, 100 complete control)
[10] = Postemergence, 62 g ai/ha, scale 0 to 100 (0 no effect, 100 complete control)
[11] = Postemergence, 125 g ai/ha, scale 0 to 100, 0 no effect, 100 complete control
[12] = Postemergence, 250 g ai/ha, scale 0 to 100
[13] = Postemergence, 250 g ai/ha, scale 0 to 100 (0 no effect, 100 complete control)
[14] = Postemergence, 16 g ai/ha, scale 0 to 100
[15] = Preemergence, 16 g ai/ha, scale 0 to 100 (0 no effect, 100 complete control)
[16] = Preemergence, 31 g ai/ha, scale 0 to 100 (0 no effect, 100 complete control)
[17] = Preemergence, 62 g ai/ha, scale 0 to 100
[18] = Preemergence, 125 g ai/ha, scale 0 to 100
[19] = Preemergence, 250 g ai/ha, scale 0 to 100

## COc1nn(-c2ccc(C(F)(F)F)cc2)nc1Cn1ccc(C(F)(F)F)n1 [Compound 17, 4-methoxy-2-[4-(trifluoromethyl)phenyl]-5-[[3-(trifluoromethyl)-1H-pyrazol-1-yl]methyl]-2H-1,2,3-triazole]
[1]; Flood (flooded paddy test), 62 g ai/ha, visual rating after 13 to 15 days
  pest or weed control at 62 g/ha: 0%
[1]; [7]
  pest or weed control at 125 g/ha: 0%
[1]; [8]
  pest or weed control at 250 g/ha: 20%
[1]; Flood, 31 g ai/ha
  pest or weed control at 31 g/ha: 0%

## Cc1nn(-c2ccc(C(F)(F)F)cc2)nc1Cc1cccc(C(F)(F)F)c1 [Compound 124]
[2]; Postemergence, 16 g ai/ha, scale 0 to 100, 0 no effect, 100 complete control
  Plant response rating, Bermudagrass: 5
[2]; [9]
  Plant response rating, Bermudagrass: 25
[2]; [10]
  Plant response rating, Bermudagrass: 45
[2]; [11]
  Plant response rating, Bermudagrass: 60
[1]; [7]
  Plant response rating, Ducksalad: 90
[1]; [8]
  Plant response rating, Ducksalad: 90
[1]; Flood, 31 g ai/ha
  Plant response rating, Ducksalad: 20
[1]; Flood, 62 g ai/ha
  Plant response rating, Ducksalad: 90

## CCc1nn(-c2ccc(C(F)(F)F)cc2)nc1Oc1cccc(OC(F)(F)F)c1 [Compound 125, 4-ethyl-5-[3-(trifluoromethoxy)phenoxy]-2-[4-(trifluoromethyl)phenyl]-2H-1,2,3-triazole]
[1]; [7]
  pest or weed control at 125 g/ha: 75%
[1]; [8]
  pest or weed control at 250 g/ha: 90%
[1]; Flood, 31 g ai/ha
  pest or weed control at 31 g/ha: 0%
[1]; Flood, 62 g ai/ha
  pest or weed control at 62 g/ha: 0%

## Cc1nn(-c2ccc(F)cc2)nc1Oc1ccnc(C(F)(F)F)c1 [Compound 129, 4-[[2-(4-fluorophenyl)-5-methyl-2H-1,2,3-triazol-4-yl]oxy]-2-(trifluoromethyl)pyridine]
[2]; [9]
  Plant response rating, Bermudagrass: 40
[2]; [10]
  Plant response rating, Bermudagrass: 45
[2]; [11]
  Plant response rating, Bermudagrass: 60
[2]; [12]
  Plant response rating, Bermudagrass: 70
[2]; Preemergence, 31 g ai/ha, scale of 0 to 100, 0 is no effect, 100 is complete control
  Plant response rating, Bermudagrass: 98
[2]; Preemergence, 62 g ai/ha, scale 0 to 100, 0 no effect, 100 complete control
  Plant response rating, Bermudagrass: 98
[2]; Preemergence, 125 g ai/ha, scale 0 to 100, 0 no effect, 100 complete control
  Plant response rating, Bermudagrass: 98
[2]; Preemergence, 250 g ai/ha, scale 0 to 100, 0 no effect, 100 complete control
  Plant response rating, Bermudagrass: 98
[3]; [9]
  Plant response rating: Foxtail, Green: 35
[3]; [10]
  Plant response rating: Foxtail, Green: 85
[3]; [11]
  Plant response rating: Foxtail, Green: 95
[3]; [13]
  Plant response rating: Foxtail, Green: 100
[3]; [14]
  Plant response rating, Foxtail, Green: 35
[3]; [15]
  Plant response rating, Foxtail, Green: 5
[3]; [16]
  Plant response rating, Foxtail, Green: 90
[3]; [17]
  Plant response rating, Foxtail, Green: 100
[3]; [18]
  Plant response rating, Foxtail, Green: 100
[3]; [19]
  Plant response rating, Foxtail, Green: 100
[4]; [9]
  Plant response rating: Barley, Winter: 5
[4]; [10]
  Plant response rating: Barley, Winter: 10
[4]; [11]
  Plant response rating: Barley, Winter: 15
[4]; [13]
  Plant response rating: Barley, Winter: 30
[4]; [14]
  Plant response rating, Barley, Winter: 5
[4]; [15]
  Plant response rating, Barley, Winter: 0
[4]; [16]
  Plant response rating, Barley, Winter: 0
[4]; [17]
  Plant response rating, Barley, Winter: 0
[4]; [18]
  Plant response rating, Barley, Winter: 10
[4]; [19]
  Plant response rating, Barley, Winter: 15
[5]; [9]
  Plant response rating: Pigweed: 100
[5]; [10]
  Plant response rating: Pigweed: 100
[5]; [11]
  Plant response rating: Pigweed: 100
[5]; [13]
  Plant response rating: Pigweed: 100
[5]; [14]
  Plant response rating, Pigweed: 100
[5]; [15]
  Plant response rating, Pigweed: 30
[5]; [16]
  Plant response rating, Pigweed: 80
[5]; [17]
  Plant response rating, Pigweed: 90
[5]; [18]
  Plant response rating, Pigweed: 100
[5]; [19]
  Plant response rating, Pigweed: 100
Kochia (Kochia scoparia); [9]
  Plant response rating: Kochia: 98
Kochia (Kochia scoparia); [10]
  Plant response rating: Kochia: 100
Kochia (Kochia scoparia); [11]
  Plant response rating: Kochia: 100
Kochia (Kochia scoparia); [13]
  Plant response rating: Kochia: 100
Kochia (Kochia scoparia); [14]
  Plant response rating, Kochia: 98
Kochia (Kochia scoparia); [15]
  Plant response rating, Kochia: 20
Kochia (Kochia scoparia); [16]
  Plant response rating, Kochia: 25
Kochia (Kochia scoparia); [17]
  Plant response rating, Kochia: 75
Kochia (Kochia scoparia); [18]
  Plant response rating, Kochia: 100
Kochia (Kochia scoparia); [19]
  Plant response rating, Kochia: 100
[6]; [9]
  Plant response rating: Oilseed Rape: 80
[6]; [10]
  Plant response rating: Oilseed Rape: 95
[6]; [11]
  Plant response rating: Oilseed Rape: 100
[6]; [13]
  Plant response rating: Oilseed Rape: 100
[6]; [14]
  Plant response rating, Oilseed Rape: 80
[6]; [15]
  Plant response rating, Oilseed Rape: 0
[6]; [16]
  Plant response rating, Oilseed Rape: 0
[6]; [17]
  Plant response rating, Oilseed Rape: 10
[6]; [18]
  Plant response rating, Oilseed Rape: 30
[6]; [19]
  Plant response rating, Oilseed Rape: 60
[1]; [7]
  pest or weed control at 125 g/ha: 80%
[1]; [8]
  pest or weed control at 250 g/ha: 90%
[1]; Flood, 31 g ai/ha
  pest or weed control at 31 g/ha: 70%
[1]; Flood, 62 g ai/ha
  pest or weed control at 62 g/ha: 75%

## Cc1nn(-c2ccnc(C(F)(F)F)c2)nc1Cc1ccnc(C(F)(F)F)c1 [Compound 137]
[2]; [9]
  Plant response rating, Bermudagrass: 30
[2]; [10]
  Plant response rating, Bermudagrass: 30
[2]; [12]
  Plant response rating, Bermudagrass: 45
[3]; [9]
  Plant response rating: Foxtail, Green: 50
[3]; [10]
  Plant response rating: Foxtail, Green: 70
[3]; [11]
  Plant response rating: Foxtail, Green: 80
[3]; [13]
  Plant response rating: Foxtail, Green: 95
[3]; [14]
  Plant response rating, Foxtail, Green: 40
[4]; [9]
  Plant response rating: Barley, Winter: 5
[4]; [10]
  Plant response rating: Barley, Winter: 5
[4]; [11]
  Plant response rating: Barley, Winter: 1
[4]; [13]
  Plant response rating: Barley, Winter: 10
[4]; [14]
  Plant response rating, Barley, Winter: 0
[5]; [9]
  Plant response rating: Pigweed: 90
[5]; [10]
  Plant response rating: Pigweed: 95
[5]; [11]
  Plant response rating: Pigweed: 100
[5]; [13]
  Plant response rating: Pigweed: 100
[5]; [14]
  Plant response rating, Pigweed: 90
Kochia (Kochia scoparia); [9]
  Plant response rating: Kochia: 85
Kochia (Kochia scoparia); [10]
  Plant response rating: Kochia: 90
Kochia (Kochia scoparia); [11]
  Plant response rating: Kochia: 95
Kochia (Kochia scoparia); [13]
  Plant response rating: Kochia: 100
Kochia (Kochia scoparia); [14]
  Plant response rating, Kochia: 75
[6]; [9]
  Plant response rating: Oilseed Rape: 90
[6]; [10]
  Plant response rating: Oilseed Rape: 98
[6]; [11]
  Plant response rating: Oilseed Rape: 100
[6]; [13]
  Plant response rating: Oilseed Rape: 100
[6]; [14]
  Plant response rating, Oilseed Rape: 70
